This passage reports IC50 results from patent EP0732331A1, “Novel benzothiophene compounds and methods for inhibiting lipoxygenase and leukotrienes” (ELI LILLY AND COMPANY, priority 1995, dated 1996).

The subject of assay [1] is production of LTC4 by the cytokine dependent mast cell line MCII. As to the kind of experiment: MCII Mast Cell LTC4 Assay. In kind it is cell-based, mouse. Conditions: read-out: LTC4. An excerpt: This assay measures the production of LTC4 by the cytokine dependent mast cell line MCII, stimulated by cross linking the high affinity Fc receptor for IgE (FcεR1).
The bone marrow derived, cytokine dependent mouse mast cell line MCII (Lilly Research Laboratories) is maintained in log phase growth in complete Dulbecco's' Modified Eagles Medium (GIBCO BRL) supplemented with fetal bovine serum (Hyclone), gentamicin, penicillin and streptomycin (GIBCO BRL) and using concanavalin A (ICN ImmunoBiologicals) induced culture supernatants from the mouse helper T cell clone D10.G4 (ATCC TIB 224) as a source of mast cell growth factors. The MCII cells are passively sensitized with mouse monoclonal IgE by incubation with an appropriate dilution of IgEL b4 (ATCC TIB 141) antibody ascites at 37° C for 60 minutes and then washed with Hank's Balanced Salt Solution (GIBCO BRL) to remove unbound IgE. The sensitized cells are then preincubated with drug in complete media for 10 minutes at 37° C in 96 well polypropylene plates (Costar). Each drug concentration is tested in triplicate at half log dilutions. The drug vehicle is dimethyl sulfoxide which is present at a final concentration of 0.32% in all wells.
There are 40,000 MCII cells per well in a final volume of 200 µl complete medium. The stimulated cells are incubated at 37° C for 10 minutes and then LTC4 production is stopped by addition of 25 µl of 180 mM EDTA to chelate extracellular Ca^++.
The amount of LTC4 produced is determined in a competitive enzyme immunoassay (EIA) using commercial reagents purchased from Cayman Chemical Co. In the EIA, free LTC4 in the sample competes with enzyme conjugated LTC4 for binding to immobilized anti-LTC4 antibody. The enzyme conjugated to LTC4 is acetylcholinesterase and Elman's reagent is the substrate for the enzyme. The concentration of LTC4 in the unknown sample is determined using a 4-parameter quadratic analysis of a standard curve generated by measuring the optical density resulting from the addition of known amounts of LTC4 to the EIA.
The positive control on each plate is stimulated MCII cells with dimethyl sulfoxide vehicle alone and the negative control is the same reaction mixture without cells. The background negative control value is subtracted from experimental and positive control values and the data are reported as percent of positive control.

The subject of assay [2] is production of leukotriene B4 (LTB4). Description: Inhibition of Eicosanoid Production by Plasma-depleted Blood: LTB4. Type of assay: cell-based. Conditions: Homo sapiens, read-out: LTB4. Here is the method:
(§1) Compounds are evaluated for their ability to inhibit production of leukotriene B4 (LTB4) and thromboxane B2 (TxB2) upon stimulation of human plasma-depleted blood with formyl-methionyl-leucyl-phenylalanine (FMLP) and thrombin. LTB4 is produced by neutrophils and TxB2 by platelets stimulated at their respective receptors with FMLP and thrombin. The assay is carried out in 1 ml deep well polypropylene 96-well plates (Beckman). For the test, ten ml of blood is collected in EDTA at a final concentration of 1.5 mg/ml. Then, 40 ml glucose phosphate buffer containing 0.1% gelatin is added and the suspension centrifuged at 900 g for 10 minutes at room temperature. The supernatant is discarded and the cells washed once with 50 ml buffer before resuspending them in 50 ml Krebs-Ringers-Henseleit Buffer containing 0.1% gelatin, 1 mM CaCl2, 1.1 mM MgCl2 (KRH buffer). Working solutions of test compounds are made by dissolving the material in DMSO at 10 mM and diluting with appropriate amounts of KRH buffer. An agonist solution is made containing 1 µM FMLP (sigma) and 10 units/ml of thrombin in KRH buffer (Enzyme Research Labs). The blood cell suspension is first warmed to 37° C for 5 minutes and then mixed with cytochalasin B (sigma) at a final concentration of 2 µg/ml. In each well, 200 µl of the compound solution is incubated with 250 µl of the blood cell, cytochalasin B suspension at 37° C for 10 min. Stimulation of eicosanoid production is begun by adding 50 µl of the agonist solution. The mixture is then incubated for 2 min. before stopping the reaction by adding 50 µl of a solution containing 275 mM EDTA, 110 µM indomethacin (sigma) and 110 µM of the 5-lipoxygenase inhibitor, N-hydroxy-N-[3-[2-(2-propynylthio)phenyl]-2-propenyl]urea. Subsequently, the plate is centrifuged and an aliquot of the supernatant fluid removed for analysis of the eicosanoid content. The amount of LTB4 and TxB2 produced is determined by the use of a competitive enzyme immunoassay using commercial reagents from Cayman Chemical.

The test system of assay [3] is production of thromboxane B2 (TxB2). As to the kind of experiment: Inhibition of Eicosanoid Production by Plasma-depleted Blood: TxB2. Type of assay: cell-based. The following applies: Homo sapiens, read-out: TxB2. Here is the method: as §1
Another assay deals with T1, cPLA2 (Homo sapiens, UniProt P47712).
T1 sequence (P47712 1-749): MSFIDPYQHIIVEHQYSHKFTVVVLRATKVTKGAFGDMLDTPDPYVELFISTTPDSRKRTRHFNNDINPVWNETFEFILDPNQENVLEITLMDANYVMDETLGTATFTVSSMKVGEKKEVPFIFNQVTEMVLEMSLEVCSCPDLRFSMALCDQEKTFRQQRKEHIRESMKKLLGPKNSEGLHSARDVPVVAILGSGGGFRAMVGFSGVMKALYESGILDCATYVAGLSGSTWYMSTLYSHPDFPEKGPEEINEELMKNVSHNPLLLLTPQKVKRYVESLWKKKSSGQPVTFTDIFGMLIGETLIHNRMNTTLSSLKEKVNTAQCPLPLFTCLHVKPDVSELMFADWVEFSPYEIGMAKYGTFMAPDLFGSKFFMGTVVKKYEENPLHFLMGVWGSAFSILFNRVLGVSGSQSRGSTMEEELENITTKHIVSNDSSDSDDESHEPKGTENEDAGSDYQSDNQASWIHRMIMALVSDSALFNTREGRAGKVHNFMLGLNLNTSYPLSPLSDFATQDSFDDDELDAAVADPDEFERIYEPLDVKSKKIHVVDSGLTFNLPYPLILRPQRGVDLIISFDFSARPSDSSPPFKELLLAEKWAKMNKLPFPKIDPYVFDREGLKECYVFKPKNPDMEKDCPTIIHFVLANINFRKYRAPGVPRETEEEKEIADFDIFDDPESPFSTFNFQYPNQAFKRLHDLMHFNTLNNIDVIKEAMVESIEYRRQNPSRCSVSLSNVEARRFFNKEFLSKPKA
Description: Chromogenic cPLA2 enzyme assay. In kind it is biochemical. The following applies: C-PLA2 Enzyme.

For the next assay, the system named is MCII cells. Description: MCII Mast Cell Toxicity Assay (XTT). In kind it is cell-based. The following applies: Mus musculus, read-out: Toxicity. From the text:
This toxicity assay is run in parallel with the MCII mast cell LTC4 assay and serves as an indicator of compound effects on the viability and metabolic activity of the MCII cells. This "toxicity" assay is based on the ability of dehydrogenase enzymes present in viable metabolically active cells to bioreduce the tetrazolium salt XTT yielding a colored, water soluble formazan product. (see, Roehm et al.) "An improved colorimetric assay for cell proliferation and viability utilzing the tetrazolium salt XTT. J. Immunol. Methods 142:257-65 (1991).
A duplicate polystyrene 96-well tissue culture plate (Costar) is set up with sensitized MCII cells, EM95 ascites, media and dilutions of the test compound as described above. The complete media is supplemented with concanavalin A induced culture supernatants from the mouse helper T cell clone D10.G4, as a source of mast cell growth factors.
Wells of the toxicity assay plate are pulsed with 25 µl XTT (Sigma) plus phenazine methosulfate (Aldrich) giving a final concentration of 0.2 mg/ml XTT and 25 µM phenazine methosulfate. The plates are incubated at 37° C in 10% CO2 for 4-12 hours and then production of the XTT formazan product determined by measuring the optical density of the wells at a wavelength of 450 nm. The positive control on each plate is stimulated MCII cells with dimethyl sulfoxide vehicle alone and the negative control is the same reaction mixture without cells. The background negative control value is subtracted from experimental and positive control values and the data are reported as percent of positive control.
Background: Formazan colour is commonly taken as a measure of viable cells.

Another assay deals with T2, cytosolic 5-lipoxygenase (Homo sapiens, UniProt P09917).
T2 construct: Cells are disrupted with sonication and the cytosolic fraction obtained by centrifugation at 20,000 x g; from tissue; host or cells: human peripheral blood neutrophils, 20,000 x g cytosolic supernatant
T2 sequence (P09917 1-674): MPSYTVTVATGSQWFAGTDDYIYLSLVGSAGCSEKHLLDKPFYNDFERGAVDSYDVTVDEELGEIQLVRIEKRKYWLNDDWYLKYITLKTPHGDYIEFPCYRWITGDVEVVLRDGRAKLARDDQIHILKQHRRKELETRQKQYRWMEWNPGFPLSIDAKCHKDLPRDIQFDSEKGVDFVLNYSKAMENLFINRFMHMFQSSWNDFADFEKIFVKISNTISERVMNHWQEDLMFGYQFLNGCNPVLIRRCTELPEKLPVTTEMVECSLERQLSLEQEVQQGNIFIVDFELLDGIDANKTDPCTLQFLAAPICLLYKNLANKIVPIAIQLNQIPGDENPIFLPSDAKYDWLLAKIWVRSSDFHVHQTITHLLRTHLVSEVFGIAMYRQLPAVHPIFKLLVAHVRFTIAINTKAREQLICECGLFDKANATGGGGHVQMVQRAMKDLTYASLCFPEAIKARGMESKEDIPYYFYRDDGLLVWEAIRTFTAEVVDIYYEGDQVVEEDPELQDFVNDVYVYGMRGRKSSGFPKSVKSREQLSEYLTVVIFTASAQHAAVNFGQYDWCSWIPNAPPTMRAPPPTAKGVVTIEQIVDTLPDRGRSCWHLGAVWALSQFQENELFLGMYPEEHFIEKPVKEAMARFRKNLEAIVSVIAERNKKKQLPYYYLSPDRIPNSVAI
As to the kind of experiment: 5-Lipoxygenase (5-LPO) Assay. In kind it is biochemical. Conditions: inhibition of leukotriene B4; human neutrophil 20,000 x g supernatant; 5 minutes at 37°C.

Where [4] appears, read: MCII Mast Cell, IgE-sensitized, stimulated with anti-mouse IgE EM95.
[5] abbreviates: Plasma DPLTD Blood, stimulated with FMLP and thrombin.
Where [6] appears, read: MCII Mast Cell, XTT reduction, 4-12 hours.

SMILES strings stand for the structures. Like-named read-outs stand apart in the source and are kept apart here. Where only a bound is given, the exact number is not on record here.

Description for cytosolic 5-lipoxygenase: To determine the effect of compounds on 5-lipoxygenase activity, peripheral blood neutrophils are separated by density centrifugation as described (Marder et al., Prostaglandins Leukot. and Essent. Fatty Acids 46 , 265-270, 1992) and the cytosolic 5-lipoxygenase is prepared from isolated neutrophils according to a modification of Carter et al., (J. Pharmacol. Exp. Ther. 256 , 929-937 (1991)). Briefly, neutrophils are washed twice in buffer (in millimolar: PIPES, 10; BES, 10; and EDTA, 1; pH 6.8) and diluted to 2.5 x 10^7 cells/ml. Cells are disrupted with sonication and the cytosolic fraction obtained by centrifugation at 20,000 x g for 20 min. at 4°C. The resultant supernatant containing the cytosolic 5-lipoxygenase activity is stored frozen at -70°C prior to use. Compounds are evaluated for 5-lipoxygenase inhibitory activity. Varying concentration of compounds in 200 ml aliquots containing 50 ml of human 20,000 x g supernatant in assay buffer (in millimolar: PIPES, 10; BES, 10; EDTA, 1; NaCl, 100; ATP, 1.56; and CaCl2,, 2.5; pH 6.8) containing 3.0 mM AA are used. The reaction proceeds for 5 minutes at 37°C and is terminated upon the addition of 50 ml EDTA (250 mM). The percent inhibition of leukotriene B4 is determined for each concentration of test compound as compared to vehicle (containing no compound) control. […] Leukotriene B4 is determined by EIA.

In the case of `COc1ccc(-c2sc3cc(OC)ccc3c2C(=O)c2cc(OC)c(O)c(OC)c2)cc1` [Example 7A], the IC50 in assay [1] (Mus musculus, Mast cell) turned out to be 1.5 ± 0.3 µM.

With `Oc1ccc(-c2cc3ccc(O)cc3s2)cc1` [Compound B], the IC50 in assay [1] (setting [4]) is 0.7 µM; in assay [2] (setting [5]) it was 0.8 µM; in assay [3] (setting [5]), 3.3 µM; against cPLA2, greater than 200 µM; in the assay with MCII cells (setting [6]), less than 10 µM.

Consider `O=C(c1ccc(-c2ccccc2)cc1)c1c(-c2ccc(O)cc2)sc2cc(O)ccc12` [Example 1], for which the IC50 in assay [1] (setting [4]) is 4.4 µM; in assay [2] (setting [5]) it was 2.2 ± 0.4 µM; in assay [3] (setting [5]), 2.4 ± 1.2 µM; with MCII cells (setting [6]), greater than 10 µM.

As for `CC(C)(C)c1ccc(C(=O)c2c(-c3ccc(O)cc3)sc3cc(O)ccc23)cc1` [Example 8], in assay [1] (setting [4]), the IC50 was found to be 3.5 ± 2.1 µM.

`CC(c1cc2ccccc2s1)N(O)C(N)=O` (stereo not shown) [Zileuton, (I)-N-(1-benzo[B]thien-2-ylethyl)-N-hydroxyurea, reference compound]: in assay [1] (Mus musculus, Mast cell), the IC50 amounted to 0.5 ± 0.3 µM.

Take `Cc1ccc(C(=O)c2c(-c3ccc(O)cc3)sc3cc(O)ccc23)cc1` [Example 9]: in assay [1] (Mus musculus, Mast cell), the IC50 is 0.8 ± 0.5 µM.

With `O=C(c1cccc2ccccc12)c1c(-c2ccc(O)cc2)sc2cc(O)ccc12` [Example 2, 6-hydroxyphenyl-2-(p-hydroxyphenyl)-(benzo(B)thien-3-yl)(α-napthyl)methanone], the IC50 is 0.5 ± 0.2 µM in assay [1] (setting [4]); 0.2 ± 0.1 µM in assay [2] (setting [5]); 4.9 ± 2.4 µM in assay [3] (setting [5]); greater than 200 µM against cPLA2; greater than 10 µM in the assay on MCII cells (setting [6]).

Consider `Cc1cccc(C(=O)c2c(-c3ccc(O)cc3)sc3cc(O)ccc23)c1` [Example 10], for which, in assay [1] (Mus musculus, Mast cell), the IC50 turned out to be 1.1 ± 0.2 µM.

As to `O=C(c1ccc2ccccc2c1)c1c(-c2ccc(O)cc2)sc2cc(O)ccc12` [Example 3, 6-hydroxyphenyl-2-(p-hydroxyphenyl)-(benzo(B)thien-3-yl)(β-napthyl)methanone], the IC50 in assay [1] (setting [4]) was 3.9 ± 1.8 µM; in assay [2] (setting [5]) it was 0.2 µM; in assay [3] (setting [5]), 1.4 µM; with MCII cells (setting [6]) it was greater than 10 µM.

Take `O=C(c1cccc(O)c1)c1c(-c2ccc(O)cc2)sc2cc(O)ccc12` [Example 11]: the IC50 in assay [1] (Mus musculus, Mast cell) was 2.7 µM.

As to `COc1ccc(C(=O)c2c(-c3ccc(OC)cc3)sc3cc(OC)ccc23)cc1` [Compound C], the IC50 in assay [1] (setting [4]) was 6.7 ± 3 µM; at cytosolic 5-lipoxygenase it was greater than 10 µM; in assay [2] (setting [5]) it was 1.5 ± 0.4 µM; in assay [3] (setting [5]), 2 ± 0.6 µM.

Consider `O=C(c1ccc(O)cc1)c1c(-c2ccc(O)cc2)sc2cc(O)ccc12` [Compound D], for which the results for the IC50 in assay [2] and in assay [3] were 1.6 µM and greater than 9.8 µM, respectively.

As for `O=C(c1ccccc1)c1c(-c2ccc(O)cc2)sc2cc(O)ccc12` [Compound A], the IC50 was 7.1 ± 0.5 µM in assay [1] (Mus musculus, Mast cell); 0.5 µM in assay [2]; 4.9 µM in assay [3]; 0.3 µM in the assay on MCII cells (Mast cell).
